Reference: patent US8153809B2, “Dihydropyridone ureas as P2X7 modulators” (Roche Palo Alto LLC, priority 2008, dated 2012)

Biological target: T1, P2X7 (UniProt Q99572)
T1 sequence (Q99572 1-595): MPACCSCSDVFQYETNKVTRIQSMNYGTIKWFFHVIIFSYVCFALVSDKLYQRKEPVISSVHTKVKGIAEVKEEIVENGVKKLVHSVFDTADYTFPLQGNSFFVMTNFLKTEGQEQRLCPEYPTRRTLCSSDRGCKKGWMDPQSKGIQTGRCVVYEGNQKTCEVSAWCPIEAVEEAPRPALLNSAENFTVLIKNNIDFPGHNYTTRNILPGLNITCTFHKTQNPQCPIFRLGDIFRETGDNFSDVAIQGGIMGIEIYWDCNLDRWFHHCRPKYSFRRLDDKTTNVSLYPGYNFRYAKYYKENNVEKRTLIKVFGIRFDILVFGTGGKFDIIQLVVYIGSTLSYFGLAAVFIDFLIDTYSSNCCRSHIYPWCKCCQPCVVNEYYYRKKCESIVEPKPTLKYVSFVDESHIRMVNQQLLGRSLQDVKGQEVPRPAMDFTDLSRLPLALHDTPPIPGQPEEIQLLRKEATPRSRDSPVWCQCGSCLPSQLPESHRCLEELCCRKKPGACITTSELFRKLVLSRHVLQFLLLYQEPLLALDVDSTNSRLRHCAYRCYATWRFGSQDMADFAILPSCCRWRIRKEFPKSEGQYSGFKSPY
Assay: pIC50 values for P2X7 (Table 1)
Assay type: cell-based
Experimental: Intracellular Calcium Flux (FLIPR) Assay
Compound and Reagent Preparation
Stock solutions of compounds were prepared from powders as a 10 mM DMSO stock solution. These solutions were stored at RT during the two week period of these experiments to prevent freeze-thaw of the DMSO stocks. The DMSO stocks were added to the appropriate assay buffer at a concentration of 10 μM, and then diluted serially to the final concentrations that were tested. […] The aqueous solutions of compounds as well as ATP (Sigma A7699) and BzATP (Sigma B6396) were prepared fresh for each day of experiment.
1321N1 cells stably expressing the full length human P2X7 gene (1321N1-hP2X7) and HEK293 cells stably expressing the full length rat P2X7 gene (HEK293-rP2X7) were obtained from the Roche Cell Culture Facility. 1321N1-hP2X7 cells were grown in Dulbecco's Modified Eagle's Medium (DMEM) high glucose supplemented with 10% FBS and 250 μg/mL G418. HEK293-rP2X7 cells were grown in DMEM/F-12 supplemented with 10% FBS, 1 mM CaCl2, 2 mM MgCl2, 2 mM L-Glutamine and 500 μg/ml G418. Cells were split such that they never became >70% confluent.
Intracellular Calcium Flux (FLIPR)
On the day prior to the experiment, 1321N1-hP2X7 or HEK293-rP2X7 cells were released into suspension with calcium-free PBS+Versene and washed by centrifugation with calcium-free PBS to remove the Versene.
On the day of the experiment, plates were washed with FLIPR buffer (calcium- and magnesium-free Hank's Balanced Salt Solution (HBSS) supplemented with 10 mM Hepes, 2.5 mM probenecid and 2 mM calcium chloride) using a BIO-TEK 96 channel plate washer and incubated with […] fluo-3 dye at 37° C. for one hr. The dye was then removed by plate washing and the cells were allowed to equilibrate for 20 min at room temperature with antagonist or vehicle (FLIPR buffer). Agonist (100 μM BzATP final concentration for hP2X7; 5 μM BzATP final concentration or rP2X7) was added online with the FLIPR and fluorescence measurements made at 1 sec intervals for 60 sec followed by 3 sec intervals for a further 4 min (5 min total). A final addition of 5 μM ionomycin was made and the maximal BzATP-evoked fluorescence normalized to the maximal ionomycin-evoked fluorescence.

Compound | pIC50
CNC(=O)COc1cc(NC(=O)N2C=CC(=O)C[C@H]2c2ccc(F)cc2)c(Br)cc1Cl [Compound 25, (S)-2-(4-Fluoro-phenyl)-4-oxo-3,4-dihydro-2H-pyridine-1-carboxylic acid (2-bromo-4-chloro-5-methylcarbamoylmethoxy-phenyl)-amide] | 6.785
COc1cc(C)c(NC(=O)N2C=CC(=O)C[C@H]2c2ccc(F)cc2)cc1OC [Compound 26, (S)-2-(4-Fluoro-phenyl)-4-oxo-3,4-dihydro-2H-pyridine-1-carboxylic acid (4,5-dimethoxy-2-methyl-phenyl)-amide] | 7.93
COC(=O)c1cc(NC(=O)N2C=CC(=O)C[C@H]2c2ccc(F)cc2)c(Br)cc1Cl [Compound 27, 4-Bromo-2-chloro-5-{[(S)-2-(4-fluoro-phenyl)-4-oxo-3,4-dihydro-2H-pyridine-1-carbonyl]-amino}-benzoic acid methyl ester] | 7.26
COc1cc(NC(=O)N2C=CC(=O)C[C@H]2c2ccc(F)cc2)c(Br)cc1S(C)(=O)=O [Compound 28, (S)-2-(4-Fluoro-phenyl)-4-oxo-3,4-dihydro-2H-pyridine-1-carboxylic acid (2-bromo-4-methanesulfonyl-5-methoxy-phenyl)-amide] | 6.435
COc1cc(NC(=O)N2C=CC(=O)C[C@H]2c2cccc(F)c2)c(Br)cc1C [Compound 29, (S)-2-(3-Fluoro-phenyl)-4-oxo-3,4-dihydro-2H-pyridine-1-carboxylic acid (2-bromo-5-methoxy-4-methyl-phenyl)-amide] | 7.93
COC(=O)COc1cc(NC(=O)N2C=CC(=O)C[C@H]2c2ccc(F)cc2)c(Br)cc1Cl [Compound 30, (4-Bromo-2-chloro-5-{[(S)-2-(4-fluoro-phenyl)-4-oxo-3,4-dihydro-2H-pyridine-1-carbonyl]-amino}-phenoxy)-acetic acid methyl ester] | 6.7
COC(=O)COc1cc(N(CC(=O)OC)C(=O)N2C=CC(=O)C[C@H]2c2ccc(F)cc2)c(Br)cc1Cl [Compound 31, (4-Bromo-2-chloro-5-{[(S)-2-(4-fluoro-phenyl)-4-oxo-3,4-dihydro-2H-pyridine-1-carbonyl]-methoxycarbonylmethyl-amino}-phenoxy)-acetic acid methyl ester] | 5.27
O=C(O)COc1cc(NC(=O)N2C=CC(=O)C[C@H]2c2ccc(F)cc2)c(Br)cc1Cl [Compound 32, (4-Bromo-2-chloro-5-{[(S)-2-(4-fluoro-phenyl)-4-oxo-3,4-dihydro-2H-pyridine-1-carbonyl]-amino}-phenoxy)-acetic acid] | 5.365
COCCOc1cc(NC(=O)N2C=CC(=O)C[C@H]2c2ccc(F)cc2)c(Br)cc1Cl [Compound 33, (S)-2-(4-Fluoro-phenyl)-4-oxo-3,4-dihydro-2H-pyridine-1-carboxylic acid [2-bromo-4-chloro-5-(2-methoxy-ethoxy)-phenyl]-amide] | 7.27
COc1ccc(NC(=O)N2C=CC(=O)C[C@H]2c2ccc(F)cc2)cc1OC [Compound 34, (S)-2-(4-Fluoro-phenyl)-4-oxo-3,4-dihydro-2H-pyridine-1-carboxylic acid (3,4-dimethoxy-phenyl)-amide] | 7.2425
COc1cc(NC(=O)N2C=CC(=O)C[C@H]2c2ccc(F)cc2)c(F)cc1Cl [Compound 35, (S)-2-(4-Fluoro-phenyl)-4-oxo-3,4-dihydro-2H-pyridine-1-carboxylic acid (4-chloro-2-fluoro-5-methoxy-phenyl)-amide] | 7.195
Cc1n[nH]c2cc(NC(=O)N3C=CC(=O)C[C@H]3c3ccc(F)cc3)c(Br)cc12 [Compound 36, (S)-2-(4-Fluoro-phenyl)-4-oxo-3,4-dihydro-2H-pyridine-1-carboxylic acid (5-bromo-3-methyl-1H-indazol-6-yl)-amide] | 6.905
O=C1C=CN(C(=O)Nc2cc3c(cc2Br)OCO3)C(c2ccc(F)cc2)C1 (centres unmarked) [Compound 37] | 7.457
COC(=O)c1cc(Br)c(NC(=O)N2C=CC(=O)C[C@H]2c2ccc(F)cc2)cc1OC [Compound 38, 5-Bromo-4-{[(S)-2-(4-fluoro-phenyl)-4-oxo-3,4-dihydro-2H-pyridine-1-carbonyl]-amino}-2-methoxy-benzoic acid methyl ester] | 6.89
COC(=O)c1cc(Br)c(NC(=O)N2C=CC(=O)C[C@H]2c2cccc(F)c2)cc1OC [Compound 39, 5-Bromo-4-{[(S)-2-(3-fluoro-phenyl)-4-oxo-3,4-dihydro-2H-pyridine-1-carbonyl]-amino}-2-methoxy-benzoic acid methyl ester] | 7.06
O=C1C=CN(C(=O)Nc2cc(OCCO)c(Cl)cc2Br)[C@H](c2ccc(F)cc2)C1 [Compound 40, (S)-2-(4-Fluoro-phenyl)-4-oxo-3,4-dihydro-2H-pyridine-1-carboxylic acid [2-bromo-4-chloro-5-(2-hydroxy-ethoxy)-phenyl]-amide] | 7.607
COc1cc(NC(=O)N2C=CC(=O)CC2c2ccccc2F)c(Br)cc1C (centres unmarked) [Compound 41, 2-(2-Fluoro-phenyl)-4-oxo-3,4-dihydro-2H-pyridine-1-carboxylic acid (2-bromo-5-methoxy-4-methyl-phenyl)-amide] | 6.43
COc1cc(NC(=O)N2C=CC(=O)C[C@H]2c2ccc(F)cc2)c(Br)cc1OC(F)F [Compound 42, (S)-2-(4-Fluoro-phenyl)-4-oxo-3,4-dihydro-2H-pyridine-1-carboxylic acid (2-bromo-4-difluoromethoxy-5-methoxy-phenyl)-amide] | 7.503
COc1cc(NC(=O)N2C=CC(=O)CC2c2ccc(F)c(F)c2)c(Br)cc1C (centres unmarked) [Compound 44, 2-(3,4-Difluoro-phenyl)-4-oxo-3,4-dihydro-2H-pyridine-1-carboxylic acid (2-bromo-5-methoxy-4-methyl-phenyl)-amide] | 7.383
COc1cc(NC(=O)N2C=CC(=O)C[C@H]2c2ccc(F)cc2)ccc1C [Compound 45, (S)-2-(4-Fluoro-phenyl)-4-oxo-3,4-dihydro-2H-pyridine-1-carboxylic acid (3-methoxy-4-methyl-phenyl)-amide] | 6.737
COc1cc(NC(=O)N2C=CC(=O)C[C@H]2c2cccc(F)c2)c(Br)cc1OC(F)F [Compound 46, (S)-2-(3-Fluoro-phenyl)-4-oxo-3,4-dihydro-2H-pyridine-1-carboxylic acid (2-bromo-4-difluoromethoxy-5-methoxy-phenyl)-amide] | 7.293
Cc1cc(Br)c(NC(=O)N2C=CC(=O)C[C@H]2c2ccc(F)cc2)cc1C#N [Compound 48, (S)-2-(4-Fluoro-phenyl)-4-oxo-3,4-dihydro-2H-pyridine-1-carboxylic acid (2-bromo-5-cyano-4-methyl-phenyl)-amide] | 6.84
COc1cc(NC(=O)N2C=CC(=O)C[C@H]2c2ccc(F)cc2)c(F)cc1C [Compound 49, (S)-2-(4-Fluoro-phenyl)-4-oxo-3,4-dihydro-2H-pyridine-1-carboxylic acid (2-fluoro-5-methoxy-4-methyl-phenyl)-amide] | 7.21
O=C1C=CN(C(=O)Nc2cc(OCCO)c(Cl)cc2Br)[C@H](c2cccc(F)c2)C1 [Compound 50, (S)-2-(3-Fluoro-phenyl)-4-oxo-3,4-dihydro-2H-pyridine-1-carboxylic acid [2-bromo-4-chloro-5-(2-hydroxy-ethoxy)-phenyl]-amide] | 7.407
CC(=O)c1cc(NC(=O)N2C=CC(=O)C[C@H]2c2ccc(F)cc2)c(Br)cc1Cl [Compound 51, (S)-2-(4-Fluoro-phenyl)-4-oxo-3,4-dihydro-2H-pyridine-1-carboxylic acid (5-acetyl-2-bromo-4-chloro-phenyl)-amide] | 6.857
Cn1ccc2ccc(NC(=O)N3C=CC(=O)CC3c3ccc(F)cc3)cc21 (centres unmarked) [Compound 52, 2-(4-Fluoro-phenyl)-4-oxo-3,4-dihydro-2H-pyridine-1-carboxylic acid (1-methyl-1H-indol-6-yl)-amide] | 7.065
